From PMC10114980, “Triple targeting of mutant EGFR^L858R/T790M, COX-2, and 15-LOX: design and synthesis of novel quinazolinone tethered phenyl urea derivatives for anti-inflammatory and anticancer evaluation” (Journal of Enzyme Inhibition and Medicinal Chemistry, 2023)

Key:
soybean 15-LOX = molecular target: T1, soybean 15-LOX (Glycine max, UniProt P08170); experiment: 15-LOX inhibitor screening assay (Cayman); format: biochemical; conditions: mean ± SEM, n = 3 replicates
T1 sequence (P08170 1-839): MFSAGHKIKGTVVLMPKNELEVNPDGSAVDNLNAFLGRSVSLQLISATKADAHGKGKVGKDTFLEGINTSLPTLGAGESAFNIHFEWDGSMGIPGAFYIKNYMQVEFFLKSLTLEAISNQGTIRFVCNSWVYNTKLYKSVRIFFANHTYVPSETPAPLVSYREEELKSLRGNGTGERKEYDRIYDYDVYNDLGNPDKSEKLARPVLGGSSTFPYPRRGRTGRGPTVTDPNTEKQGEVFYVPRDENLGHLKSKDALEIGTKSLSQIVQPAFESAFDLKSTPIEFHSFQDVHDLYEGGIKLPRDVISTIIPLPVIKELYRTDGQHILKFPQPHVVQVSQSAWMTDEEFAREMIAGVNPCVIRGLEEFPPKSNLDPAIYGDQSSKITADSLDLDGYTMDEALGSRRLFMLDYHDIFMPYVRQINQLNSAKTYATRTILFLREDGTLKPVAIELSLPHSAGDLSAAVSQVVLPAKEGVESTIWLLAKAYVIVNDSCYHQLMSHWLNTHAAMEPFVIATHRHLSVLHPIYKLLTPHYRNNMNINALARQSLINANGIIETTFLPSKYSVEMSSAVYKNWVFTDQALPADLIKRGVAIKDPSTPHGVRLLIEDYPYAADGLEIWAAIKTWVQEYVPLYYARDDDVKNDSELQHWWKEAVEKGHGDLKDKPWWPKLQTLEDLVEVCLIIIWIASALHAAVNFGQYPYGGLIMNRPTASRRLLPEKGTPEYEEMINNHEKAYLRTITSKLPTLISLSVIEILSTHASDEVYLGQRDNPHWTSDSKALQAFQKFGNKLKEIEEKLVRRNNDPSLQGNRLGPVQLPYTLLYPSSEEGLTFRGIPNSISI

wild-type EGFR = molecular target: T2, wild-type EGFR (Homo sapiens, UniProt P00533); experiment: In vitro EGFR inhibition assay, wild type; format: biochemical; conditions: for IC50: read-out: EGFR^WT IC50
T2 construct: purchased AssayQuant Technologies, Inc. (Marlboro, MA, USA)

[1] = Cell viability assay against normal cell line (MTS); format: cell-based; conditions: mouse, RAW 264.7 cells, concentrations up to 50 μM, read-out: cell viability percentage of the control values
Method: To evaluate the possible non-selective cytotoxic effect of the investigated compounds (6a, 6c, 6d, 6e, 6j, 6l, 6m, 6n, 6o, and 6p) on normal cells, their effect on RAW 264.7 cells viability was assessed at different concentrations (12.5, 25, 50, and 100 µM). Cell viability was measured using 3-(4,5-dimethylthiazol-2-yl)-5-(3-carboxymethoxyphenyl)-2-(4 sulfophenyl)-2H-tetrazolium (MTS) assay (Promega, Madison, Wisconsin) according to the manufacturer’s instructions.

CCRF-CEM = experiment: NCI single dose screen, CCRF-CEM; format: cell-based; conditions: Homo sapiens, leukaemia, single dose 10^−5 M, read-out: growth inhibition percentage
Method: (§1) Screening of the anticancer activity of the newly synthesised compounds (6a, 6c, 6d, 6e, 6j, 6l, 6m, 6n, 6o, and 6p) was performed by the US National Cancer Institute (NCI) using 60 different human tumour cell lines in accordance with standard procedures formerly reported.
(§2) In vitro anticancer screening was carried out for the selected compounds at a single dose (10^−5 M) against 60 different human tumour cell lines of nine different cancer cell types: leukaemia, lung, colon, CNS, melanoma, ovarian, renal, prostate, and breast cancers.

HL-60(TB) = experiment: NCI single dose screen, HL-60(TB); format: cell-based; conditions: Homo sapiens, leukaemia, single dose 10^−5 M, read-out: growth inhibition percentage
Method: as §1, §2

A549/ATCC = experiment: NCI single dose screen, A549/ATCC; format: cell-based; conditions: Homo sapiens, non-small cell lung cancer, single dose 10^−5 M, read-out: growth inhibition percentage
Method: as §1, §2

NCI-H226 = experiment: NCI single dose screen, NCI-H226; format: cell-based; conditions: Homo sapiens; NCI-H226, non-small cell lung cancer; single dose 10^−5 M; read-out: growth inhibition percentage
Method: as §1, §2

NCI-H322M = experiment: NCI single dose screen, NCI-H322M; format: cell-based; conditions: Homo sapiens, non-small cell lung cancer, single dose 10^−5 M, read-out: growth inhibition percentage
Method: as §1, §2

NCI-H460 = experiment: NCI single dose screen, NCI-H460; format: cell-based; conditions: Homo sapiens; NCI-H460, non-small cell lung cancer; single dose 10^−5 M; read-out: growth inhibition percentage
Method: as §1, §2

NCI-H522 = experiment: NCI single dose screen, NCI-H522; format: cell-based; conditions: Homo sapiens; NCI-H522, non-small cell lung cancer; single dose 10^−5 M; read-out: growth inhibition percentage
Method: as §1, §2

HCT-116 = experiment: NCI single dose screen, HCT-116; format: cell-based; conditions: Homo sapiens; HCT-116, colon cancer; single dose 10^−5 M; read-out: growth inhibition percentage
Method: as §1, §2

HCT-15 = experiment: NCI single dose screen, HCT-15; format: cell-based; conditions: Homo sapiens; HCT-15, colon cancer; single dose 10^−5 M; read-out: growth inhibition percentage
Method: as §1, §2

KM12 = experiment: NCI single dose screen, KM12; format: cell-based; conditions: Homo sapiens; KM12, colon cancer; single dose 10^−5 M; read-out: growth inhibition percentage
Method: as §1, §2

SW-620 = experiment: NCI single dose screen, SW-620; format: cell-based; conditions: Homo sapiens; SW-620, colon cancer; single dose 10^−5 M; read-out: growth inhibition percentage
Method: as §1, §2

U251 = experiment: NCI single dose screen, U251; format: cell-based; conditions: Homo sapiens, U-251; U251, CNS cancer; single dose 10^−5 M; read-out: growth inhibition percentage
Method: as §1, §2

LOX IMVI = experiment: NCI single dose screen, LOX IMVI; format: cell-based; conditions: Homo sapiens, melanoma, single dose 10^−5 M, read-out: growth inhibition percentage
Method: as §1, §2

MDA-MB-435 = experiment: NCI single dose screen, MDA-MB-435; format: cell-based; conditions: Homo sapiens; MDA-MB-435, melanoma; single dose 10^−5 M; read-out: growth inhibition percentage
Method: as §1, §2

OVCAR-3 = experiment: NCI single dose screen, OVCAR-3; format: cell-based; conditions: Homo sapiens; OVCAR-3, ovarian cancer; single dose 10^−5 M; read-out: growth inhibition percentage
Method: as §1, §2

OVCAR-8 = experiment: NCI single dose screen, OVCAR-8; format: cell-based; conditions: Homo sapiens; OVCAR-8, ovarian cancer; single dose 10^−5 M; read-out: growth inhibition percentage
Method: as §1, §2

786-0 = experiment: NCI single dose screen, 786-0; format: cell-based; conditions: Homo sapiens; 786-0, renal cancer; single dose 10^−5 M; read-out: growth inhibition percentage
Method: as §1, §2

ACHN = experiment: NCI single dose screen, ACHN; format: cell-based; conditions: Homo sapiens, renal cancer, single dose 10^−5 M, read-out: growth inhibition percentage
Method: as §1, §2

SN12C = experiment: NCI single dose screen, SN12C; format: cell-based; conditions: Homo sapiens, renal cancer, single dose 10^−5 M, read-out: growth inhibition percentage
Method: as §1, §2

T2 sequence (P00533 25-1210): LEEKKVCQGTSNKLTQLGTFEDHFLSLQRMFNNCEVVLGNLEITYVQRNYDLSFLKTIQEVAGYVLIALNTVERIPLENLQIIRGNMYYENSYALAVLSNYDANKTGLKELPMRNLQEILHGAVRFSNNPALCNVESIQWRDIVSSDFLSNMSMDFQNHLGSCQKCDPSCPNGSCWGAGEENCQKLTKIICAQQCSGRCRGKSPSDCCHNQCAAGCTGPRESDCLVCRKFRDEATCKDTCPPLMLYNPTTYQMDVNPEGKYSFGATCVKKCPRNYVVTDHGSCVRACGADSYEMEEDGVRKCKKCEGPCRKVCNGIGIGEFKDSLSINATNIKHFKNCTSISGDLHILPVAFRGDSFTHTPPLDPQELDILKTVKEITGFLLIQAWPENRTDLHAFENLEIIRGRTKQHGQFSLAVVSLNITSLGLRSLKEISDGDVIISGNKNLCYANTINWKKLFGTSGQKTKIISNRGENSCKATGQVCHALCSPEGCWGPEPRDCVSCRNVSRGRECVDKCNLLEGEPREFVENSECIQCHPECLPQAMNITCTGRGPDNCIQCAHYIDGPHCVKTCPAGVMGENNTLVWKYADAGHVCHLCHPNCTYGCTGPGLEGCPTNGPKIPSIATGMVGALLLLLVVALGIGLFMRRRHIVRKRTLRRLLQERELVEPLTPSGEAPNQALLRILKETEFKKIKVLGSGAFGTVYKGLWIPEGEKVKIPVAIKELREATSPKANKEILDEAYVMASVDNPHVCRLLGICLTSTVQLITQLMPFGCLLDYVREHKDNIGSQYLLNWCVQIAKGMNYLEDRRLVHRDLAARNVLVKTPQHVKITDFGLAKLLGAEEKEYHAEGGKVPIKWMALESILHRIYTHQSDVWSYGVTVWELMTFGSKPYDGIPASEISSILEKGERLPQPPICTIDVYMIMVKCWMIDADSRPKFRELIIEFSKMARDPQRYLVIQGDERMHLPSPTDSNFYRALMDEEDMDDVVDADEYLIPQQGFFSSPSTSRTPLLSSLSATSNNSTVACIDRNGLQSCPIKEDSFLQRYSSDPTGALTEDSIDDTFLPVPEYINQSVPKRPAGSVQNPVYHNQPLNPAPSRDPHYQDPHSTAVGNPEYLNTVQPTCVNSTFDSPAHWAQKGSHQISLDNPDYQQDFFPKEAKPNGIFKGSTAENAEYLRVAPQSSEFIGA

Compound	IC50 (soybean 15-LOX)	IC50 (wild-type EGFR)	viability [1]	inhibition at 10 µM (CCRF-CEM)	inhibition at 10 µM (HL-60(TB))	inhibition at 10 µM (A549/ATCC)	inhibition at 10 µM (NCI-H226)	inhibition at 10 µM (NCI-H322M)	inhibition at 10 µM (NCI-H460)	inhibition at 10 µM (NCI-H522)	inhibition at 10 µM (HCT-116)	inhibition at 10 µM (HCT-15)	inhibition at 10 µM (KM12)	inhibition at 10 µM (SW-620)	inhibition at 10 µM (U251)	inhibition at 10 µM (LOX IMVI)	inhibition at 10 µM (MDA-MB-435)	inhibition at 10 µM (OVCAR-3)	inhibition at 10 µM (OVCAR-8)	inhibition at 10 µM (786-0)	also measured
CN1CN(NC(=O)Nc2ccccc2)C(=O)c2ccccc21 [Compound 6a, 1-(1-Methyl-4-oxo-1,4-dihydroquinazolin-3(2H)-yl)-3-phenylurea]	1480 ± 270 nM	> 100000 nM	> 90%	< 10%	< 10%	< 10%	< 10%	< 10%	< 10%	< 10%	< 10%	< 10%	< 10%	< 10%	< 10%	< 10%	< 10%	< 10%	< 10%	< 10%	EGFR^WT IC50 (wild-type EGFR): no significant activity; inhibition at 10 µM (ACHN): < 10%; inhibition at 10 µM (SN12C): < 10%
CN1c2ccccc2C(=O)N(NC(=O)Nc2ccccc2)C1c1ccccc1 (stereo not shown) [Compound 6c, 1-(1-Methyl-4-oxo-2-phenyl-1,4-dihydroquinazolin-3(2H)-yl)-3-phenylurea]	1360 ± 190 nM	> 100000 nM	> 90%	< 10%	< 10%	< 10%	< 10%	< 10%	< 10%	< 10%	16.8%	< 10%	< 10%	< 10%	< 10%	< 10%	< 10%	11.7%	< 10%	35.3%	inhibition at 10 µM (ACHN): < 10%; inhibition at 10 µM (SN12C): < 10%
CN1c2ccccc2C(=O)N(NC(=O)Nc2ccccc2)C1c1ccc(F)cc1 (stereo not shown) [Compound 6d, 1-(2-(4-Fluorophenyl)-1-methyl-4-oxo-1,4-dihydroquinazolin-3(2H)-yl)-3-phenylurea]	1960 ± 230 nM	> 100000 nM	> 90%	< 10%	< 10%	< 10%	< 10%	< 10%	< 10%	< 10%	< 10%	< 10%	< 10%	< 10%	< 10%	< 10%	< 10%	12.5%	< 10%	11.9%	inhibition at 10 µM (ACHN): < 10%; inhibition at 10 µM (SN12C): < 10%
CN1c2ccccc2C(=O)N(NC(=O)Nc2ccccc2)C1c1ccc([N+](=O)[O-])cc1 (stereo not shown) [Compound 6e, 1-(1-Methyl-2-(4-nitrophenyl)-4-oxo-1,4-dihydroquinazolin-3(2H)-yl)-3-phenylurea]	1760 ± 270 nM	48700 ± 3470 nM	> 90%	< 10%	< 10%	< 10%	< 10%	< 10%	< 10%	< 10%	53.1%	< 10%	< 10%	< 10%	< 10%	< 10%	< 10%	< 10%	< 10%	39.9%	inhibition at 10 µM (ACHN): < 10%; inhibition at 10 µM (SN12C): < 10%
COc1ccc(NC(=O)NN2C(=O)c3ccccc3N(C)C2c2ccc(OC)cc2)cc1 (stereo not shown) [Compound 6j, 1-(4-Methoxyphenyl)-3-(2-(4-methoxyphenyl)-1-methyl-4-oxo-1,4-dihydroquinazolin-3(2H)-yl)urea]	1950 ± 350 nM	> 100000 nM	> 90%	< 10%	< 10%	< 10%	< 10%	< 10%	< 10%	< 10%	40.6%	< 10%	< 10%	< 10%	< 10%	< 10%	< 10%	10.2%	< 10%	34.2%	inhibition at 10 µM (ACHN): < 10%; inhibition at 10 µM (SN12C): < 10%
CC1N(NC(=O)Nc2ccc(F)cc2)C(=O)c2ccccc2N1C (stereo not shown) [Compound 6l, 1–(1,2-Dimethyl-4-oxo-1,4-dihydroquinazolin-3(2H)-yl)-3-(4-fluorophenyl)urea]	1580 ± 280 nM	> 100000 nM	> 90%	< 10%	< 10%	< 10%	< 10%	< 10%	< 10%	< 10%	< 10%	< 10%	< 10%	< 10%	< 10%	< 10%	< 10%	16.9%	< 10%	< 10%	inhibition at 10 µM (ACHN): < 10%; inhibition at 10 µM (SN12C): < 10%
